Source: patent publication US11760773B2, “Small molecule drug conjugates of gemcitabine monophosphate” (MaveriX Oncology, Inc., priority 2018, dated 2023)
Where two headings read alike, the source gives them in different places.

Assays:
[1] = Comparative plasma PK of Compound 1 versus Int 1-4 in male CD-1 mice (study b); assay type: in vivo; conditions: male, CD-1, mouse, iv; for Cmax: read-out: Cmax; for Tmax: read-out: Tmax
Experimental: Objectives: to compare the plasma pharmacokinetics and stability of Compound 1 with its non-phosphorylated SMDC analog (Int 1-4) and in plasma following a single intravenous infusion administration of Compound 1 at 11.6 mg/kg and 23.2 mg/kg with Int 1-4 (formulation F1 & F2) at 10.0 mg/kg in male CD-1 mice
PK measurements: compare PK parameters C0, CL, Vdss, Cmax, tmax, t1/2, AUC(0-t), AUC(0-inf), MRT(0-t), MRT(0-inf) for Compound 1 and Int 1-4

[2] = Int 1-4 plasma PK in the male cynomolgus monkey (study f); assay type: in vivo; conditions: for C0: read-out: C0; for MRT inf: read-out: MRT0-inf; for MRT last: read-out: MRT0-last; for Vd: read-out: Vdss
Experimental: Objectives: to compare the plasma pharmacokinetics and stability of Int 1-4 in plasma following single intravenous infusion administration of Int 1-4 at 5 mg/kg and 10 mg/kg in the male cynomolgus monkey
PK measurements: compare PK parameters C0, CL, Vdss, Cmax, tmax, t, AUC(0-t), AUC(0-inf), MRT(0-t), MRT(0-inf) for Int 1-4

[3] = Int 1-4 and gemcitabine comparative PK in male cynomolgus monkey (study g); assay type: in vivo; conditions: for AUC(0-t) / C0 / clearance / half-life / AUC(0-inf) / MRT inf / MRT last / Vd: plasma, male cynomolgus monkey; for AUC(0-inf): read-out: AUC0-inf; for MRT inf: read-out: MRT0-inf; for MRT last: read-out: MRT0-last; for Vd: read-out: Vdss
Experimental: Objectives: to compare the plasma pharmacokinetics and stability of Int 1-4 versus gemcitabine in plasma following single intravenous infusion administration of Int 1-4 at 5 mg/kg and 10 mg/kg with equimolar gemcitabine at 2.65 mg/kg and 5.29 mg/kg in male cynomolgous monkeys
PK measurements: compare PK parameters C0, CL, Vdss, Cmax, tmax, t1/2, AUC(0-t), AUC(0-inf), MRT(0-t), MRT(0-inf) for Int 1-4 with gemcitabine

[4] = Compound 1 and gemcitabine plasma PK in the male cynomolgus monkey (study h); assay type: in vivo; conditions: plasma, after iv Compound 1 5 mg/kg
Experimental: Objectives: to compare the plasma pharmacokinetics and stability of the Compound 1 with Int 1-4 and in plasma following a single intravenous infusion administration of Compound 1 at 5 mg/kg and 10 mg/kg with equimolar gemcitabine at 2.28 mg/kg in male cynomolgous monkeys.
PK measurements: compare PK parameters C0, CL, Vdss, Cmax, tmax, t1/2, AUC(0-t), AUC(0-inf), MRT(0-t), MRT(0-inf) for Compound 1 and Int 1-4 with gemcitabine.

[5] = Comparative PK of Int 1-4 versus gemcitabine in rat plasma (study i); assay type: in vivo, Sprague-Dawley rats; conditions: Sprague-Dawley rat
Source text: PK measurements: compare PK parameters C0, CL, Vdss, Cmax, tmax, t1/2, AUC(0-t), AUC(0-inf), MRT(0-t), MRT(0-inf) for Int 1-4 and gemcitabine.

[6] = Int 1-4 dog plasma PK (study j); assay type: in vivo; conditions: male beagle dog; for AUC(0-inf): read-out: AUC0-inf; for MRT inf: read-out: MRT0-inf; for MRT last: read-out: MRT0-last; for Vd: read-out: Vdss
Experimental: Objectives: to compare the plasma pharmacokinetics and stability of Int 1-4 in plasma following single intravenous infusion administration of t 1-4 at 10 mg/kg and 20 mg/kg in the male Beagle dog.

[7] = 10 mg/kg, after iv Int 1-4 10.0 mg/kg, Formulation 1
[8] = 10 mg/kg, after iv Int 1-4 10.0 mg/kg, Formulation 2
[9] = 11.6 mg/kg, after iv Compound 1 11.6 mg/kg
[10] = 23.2 mg/kg, after iv Compound 1 23.2 mg/kg
[11] = after iv Int 1-4 5 mg/kg (study f)
[12] = after iv Int 1-4 10 mg/kg (study f)
[13] = after iv Int 1-4 5 mg/kg (study g)
[14] = after iv Int 1-4 10 mg/kg (study g)
[15] = plasma, after iv Int 1-4 10.0 mg/kg
[16] = after iv Int 1-4 10 mg/kg (study j)
[17] = after iv Int 1-4 20 mg/kg (study j)

## COc1cc(OC)c2oc(COC(=O)Nc3ccn([C@@H]4O[C@H](CO)[C@@H](O)C4(F)F)c(=O)n3)cc2c1 [Int 1-4, (5,7-di(methoxy)benzofuran-2-yl)methyl (1-((2R,4R,5R)-3,3-difluoro-4-hydroxy-5-(hydroxymethyl)tetrahydrofuran-2-yl)-2-oxo-1,2-dihydropyrimidin-4-yl)carbamate]
[1]; [7]
  AUC(0-t): 3620 ng·h/mL
  C0: 33.8 µg/mL
  clearance: 48.3 mL/min/kg
  half-life: 70.8 min
[1]; 10 mg/kg, after iv Int 1-4 10.0 mg/kg, Formulation 1, read-out: AUC0-inf
  AUC(0-inf): 3630 ng·h/mL
[1]; 10 mg/kg, after iv Int 1-4 10.0 mg/kg, Formulation 1, read-out: MRT0-inf
  MRT inf: 45.4 min
[1]; 10 mg/kg, after iv Int 1-4 10.0 mg/kg, Formulation 1, read-out: MRT0-last
  MRT last: 43.4 min
[1]; 10 mg/kg, after iv Int 1-4 10.0 mg/kg, Formulation 1, read-out: Vdss
  Vd: 2.01 L/kg
[1]; [8]
  AUC(0-t): 4210 ng·h/mL
  C0: 43 µg/mL
  clearance: 38.9 mL/min/kg
  half-life: 109 min
[1]; 10 mg/kg, after iv Int 1-4 10.0 mg/kg, Formulation 2, read-out: AUC0-inf
  AUC(0-inf): 4290 ng·h/mL
[1]; 10 mg/kg, after iv Int 1-4 10.0 mg/kg, Formulation 2, read-out: MRT0-inf
  MRT inf: 59 min
[1]; 10 mg/kg, after iv Int 1-4 10.0 mg/kg, Formulation 2, read-out: MRT0-last
  MRT last: 47.8 min
[1]; 10 mg/kg, after iv Int 1-4 10.0 mg/kg, Formulation 2, read-out: Vdss
  Vd: 2.3 L/kg
[1]; [9]
  AUC(0-t): 2570 ng·h/mL
  half-life: 58.4 min
  Cmax: 20 µg/mL
  Tmax: 1.5 min
[1]; 11.6 mg/kg, after iv Compound 1 11.6 mg/kg, read-out: AUC0-inf
  AUC(0-inf): 2610 ng·h/mL
[1]; 11.6 mg/kg, after iv Compound 1 11.6 mg/kg, read-out: MRT0-inf
  MRT inf: 40.4 min
[1]; 11.6 mg/kg, after iv Compound 1 11.6 mg/kg, read-out: MRT0-last
  MRT last: 33.2 min
[1]; [10]
  AUC(0-t): 6370 ng·h/mL
  half-life: 55.8 min
  Cmax: 29.9 µg/mL
  Tmax: 1.5 min
[1]; 23.2 mg/kg, after iv Compound 1 23.2 mg/kg, read-out: AUC0-inf
  AUC(0-inf): 6380 ng·h/mL
[1]; 23.2 mg/kg, after iv Compound 1 23.2 mg/kg, read-out: MRT0-inf
  MRT inf: 47.6 min
[1]; 23.2 mg/kg, after iv Compound 1 23.2 mg/kg, read-out: MRT0-last
  MRT last: 46.7 min
[2]; [11]
  AUC(0-inf): 5470 ng·h/mL
  AUC(0-t): 5460 ng·h/mL
  clearance: 15.4 mL/min/kg
  half-life: 43.8 min
  C0: 81 µg/mL
  MRT inf: 19.8 min
  MRT last: 18.6 min
  Vd: 0.301 L/kg
[2]; [12]
  AUC(0-inf): 17400 ng·h/mL
  AUC(0-t): 17400 ng·h/mL
  clearance: 9.65 mL/min/kg
  half-life: 55.8 min
  C0: 166 µg/mL
  MRT inf: 26.4 min
  MRT last: 25.8 min
  Vd: 0.253 L/kg
[3]; male cynomolgus monkey plasma
  fold longer half-life than gemcitabine: ~50 fold
[3]; [13]
  AUC(0-t): 5950 ng·h/mL
  C0: 99.7 µg/mL
  clearance: 14.6 mL/min/kg
  half-life: 45 min
  AUC(0-inf): 5960 ng·h/mL
  MRT inf: 19.8 min
  MRT last: 19.2 min
  Vd: 0.287 L/kg
[3]; [14]
  AUC(0-t): 11900 ng·h/mL
  C0: 146 µg/mL
  clearance: 15 mL/min/kg
  half-life: 59.4 min
  AUC(0-inf): 11900 ng·h/mL
  MRT inf: 23.4 min
  MRT last: 22.8 min
  Vd: 0.349 L/kg
[4]
  AUC(0-t): 4380 ng·h/mL
  half-life: 45.6 min
[4]; read-out: AUC0-inf
  AUC(0-inf): 4400 ng·h/mL
[4]; read-out: MRT0-inf
  MRT inf: 22.2 min
[4]; read-out: MRT0-last
  MRT last: 21.6 min
[5]; iv Int 1-4
  stability in the rat (based on Cmax and AUC of free gemcitabine in plasma): unstable
[5]; Sprague-Dawley, rat, plasma, iv, 10 mg/kg, plasma, after iv Int 1-4 10.0 mg/kg
  half-life: 19.1 min
[5]; [15]
  AUC0-inf/AUC0-last: 101%
  AUC(0-inf): 2010 ng·h/mL
  AUC(0-t): 1990 ng·h/mL
  C0: 29.4 µg/mL
  clearance: 82.3 mL/min/kg
[5]; plasma, after iv Int 1-4 10.0 mg/kg, read-out: MRT0-inf
  MRT inf: 11.1 min
[5]; plasma, after iv Int 1-4 10.0 mg/kg, read-out: MRT0-last
  MRT last: 10.3 min
[5]; plasma, after iv Int 1-4 10.0 mg/kg, read-out: Vdss
  Vd: 0.905 L/kg
[6]; [16]
  AUC(0-t): 4730 ng·h/mL
  C0: 60.5 µg/mL
  clearance: 35.2 mL/min/kg
  half-life: 32.4 min
  AUC(0-inf): 4740 ng·h/mL
  MRT inf: 14.4 min
  MRT last: 13.8 min
  Vd: 0.504 L/kg
[6]; [17]
  AUC(0-t): 7930 ng·h/mL
  C0: 90.9 µg/mL
  clearance: 43.3 mL/min/kg
  half-life: 31.2 min
  AUC(0-inf): 7940 ng·h/mL
  MRT inf: 13.8 min
  MRT last: 13.2 min
  Vd: 0.58 L/kg
